Broadly, the pKa is the negative logarithm of the acid dissociation constant.

The nature of data set [1]: TNS fluorescence apparent pKa protocol for saRNA-LNP. In kind it is physicochemical. The note with it: saRNA-LNPs, TNS 6 μM, to 9.5, 25° C., EC50 of sigmoidal curve. As for the experimental part:
In a black 96-well plate, solutions of saRNA-LNP (final assay concentration 2 μg/mL total RNA) in a series of buffers ranging from pH 4 to 9.5 were prepared. Buffers between pH4 to 7.6 were prepared from disodium phosphate and citric acid. Buffers from 7.8 to 9.5 were prepared by titrating tris buffer with 10 N sodium hydroxide. To each well was added 6-(p-Toluidino)-2-naphthalenesulfonic acid sodium salt (TNS) in water to a final assay concentration of 6 μM. The fluorescence was read on a plate reader at 25° C. with an excitation setting of 321 nm and an emission setting of 445 nm. The intensity values were plotted as a function of pH using GraphPad Prism and were fit with a sigmoidal dose response curve. The apparent pKa was determined as the EC50 of this curve where half of the ionizable amines are expected to be protonated.

A further data set has as its system BHK-V cells. As to the kind of experiment: In vitro potency of saRNA-LNPs (antigen-expressing cells, flow cytometry). In kind it is cell-based. The note with it: FIG. 3. As for the experimental part: The ability of the saRNA-LNPs to transfect cultured cells was characterized using an in vitro assay based on the percentage of cells expressing the antigen of interest. Specifically, 1 million BHK-V cells were co-incubated with saRNA-LNP of varying concentration (highest 50 ng per well, lowest 0.39 ng per well) in 0.3 mL of media for 17-19 hours at 37° C. with 5% CO2. Subsequently, the cells were scraped from the dish to form a single-cell suspension, fixed and permeabilized (BD Cytofix/Perm kit), and then stained with fluorophore-labeled antigen-specific antibodies against H5 and N1 (for saRNA expressing both H5 and N1). Luciferase expression was not measured for saRNA expressing both H5 and luciferase. The percentage of single or double antigen positive cells was quantified using a BD Accuri flow cytometer. […] The slope of that line multiplied by −100,000 was reported as the LNP potency. Alternatively, a similar assay was performed in a 96-well using BHK-21 cells and analysed using a Cytation 5 Cell Imaging Multimode Reader (Agilent). The results of this assay were analysed in the same way as described for the flow cytometry assay.

The test system of a further data set is Balb/c mice. Description: Mouse immunogenicity study, antigen-specific T cells by intracellular cytokine staining. In kind it is in vivo. The note with it: prime-boost, LNPs with saRNA expressing H5 and N1, peptide stimulation, FIG. 6.

For `CCCCCCCCCC(CCCCCCCCC(=O)OCC(CCCC)CCCCCC)OC(=O)CCCN(C)C` (stereo not shown) [Compound 11], the pKa in data set [1] stood at 6.25. In addition, the “LNP potency (in vitro), comparison of the two LNPs” value in the data set on BHK-V cells (both saRNA constructs examined) was “trended higher in potency”. Moreover, in the data set on BHK-V cells (saRNA-LNP, 17-19 hours), the “ability to transfect BHK-V cells in vitro” value is on record as “able to transfect”. Moreover, in the data set with Balb/c mice, the “activated antigen-specific CD8 T cells” value was “measurable levels”.

The values above are taken from patent US20250114311A1, “IONIZABLE CATIONIC COMPOUNDS FOR MESSENGER RNA DELIVERY” (SEQIRUS INC., priority 2021, published 2025).
